Measurements from patent publication EP0048159A2, “Novel carboxyalkyl peptides and thioethers and ethers of peptides as antihypertensive agents” (UNIVERSITY OF MIAMI, priority 1980, dated 1982).

What was measured:
Human plasma ACE = molecular target: T1, Human plasma ACE (Homo sapiens, UniProt P12821); experiment: Inhibitory potency in vitro: ACE assay with [3H]hippuryl-His-Leu substrate; type: biochemical; conditions: hippuryl-His-Leu 1 x 10^-4 M, 0.05 M Hepes buffer pH 8.0, 15 minutes at 37°C, read-out: I50
T1 construct: Human plasma ACE was assayed in 0.05 M Hepes buffer, pH 8.0; from tissue; host or cells: human plasma
T1 sequence (P12821 30-1232 limits assumed): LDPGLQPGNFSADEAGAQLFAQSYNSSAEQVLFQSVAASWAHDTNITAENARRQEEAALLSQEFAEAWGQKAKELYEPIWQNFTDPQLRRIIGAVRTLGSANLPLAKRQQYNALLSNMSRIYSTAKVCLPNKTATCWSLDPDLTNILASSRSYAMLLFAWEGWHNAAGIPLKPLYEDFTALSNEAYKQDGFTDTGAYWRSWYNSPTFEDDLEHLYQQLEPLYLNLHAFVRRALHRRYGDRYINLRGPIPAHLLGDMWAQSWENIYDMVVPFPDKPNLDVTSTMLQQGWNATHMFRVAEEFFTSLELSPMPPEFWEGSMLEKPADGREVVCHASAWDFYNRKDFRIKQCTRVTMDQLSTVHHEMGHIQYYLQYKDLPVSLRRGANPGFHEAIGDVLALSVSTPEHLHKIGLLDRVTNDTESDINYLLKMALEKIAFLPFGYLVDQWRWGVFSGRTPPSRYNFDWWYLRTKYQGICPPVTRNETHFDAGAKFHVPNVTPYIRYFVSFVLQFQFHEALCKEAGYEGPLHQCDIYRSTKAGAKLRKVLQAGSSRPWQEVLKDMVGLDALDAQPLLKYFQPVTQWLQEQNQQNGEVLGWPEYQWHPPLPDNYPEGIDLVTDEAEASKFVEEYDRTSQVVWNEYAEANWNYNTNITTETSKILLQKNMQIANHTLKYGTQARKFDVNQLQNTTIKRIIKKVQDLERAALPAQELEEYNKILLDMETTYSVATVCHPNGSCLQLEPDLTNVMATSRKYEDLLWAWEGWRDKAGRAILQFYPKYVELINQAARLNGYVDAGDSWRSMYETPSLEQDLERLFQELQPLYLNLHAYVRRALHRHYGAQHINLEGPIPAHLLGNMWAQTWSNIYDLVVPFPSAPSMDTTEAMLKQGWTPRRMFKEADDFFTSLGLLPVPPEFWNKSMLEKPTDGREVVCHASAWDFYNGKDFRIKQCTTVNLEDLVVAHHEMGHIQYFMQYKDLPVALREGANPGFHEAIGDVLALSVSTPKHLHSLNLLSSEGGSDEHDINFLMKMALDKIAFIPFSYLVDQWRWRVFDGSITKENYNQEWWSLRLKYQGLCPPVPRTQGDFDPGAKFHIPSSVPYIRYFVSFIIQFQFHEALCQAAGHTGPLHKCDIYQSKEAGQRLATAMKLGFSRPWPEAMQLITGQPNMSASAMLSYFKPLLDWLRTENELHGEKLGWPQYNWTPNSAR
Procedure: The inhibitory potency of several compounds in vitro was measured in the following assay. Human plasma ACE was assayed in 0.05 M Hepes buffer, pH 8.0 containing 0.1 M NaCl and 0.75 M Na2SO4. The substrate employed was hippuryl-His-Leu at a final concentration-of 1 x 10^-4 M, (Km = 2 x 10^-4 M), together with about 130,000 cpm/50 µl of [^3Hlhippuryl-His-Leu (25 Ci/mmole). Enzyme was diluted in the above buffer such that 40 ul of buffered enzyme was capable of hydrolyzing 13% of substrate in a 15 minute incubation at 37°C. To initiate the assay, 40 µl of enzyme and 10 µl of buffer or inhibitor dissolved in buffer were preincubated for two minutes at 37°C. Substrate, 50 µl, was then added to initiate reaction and the solution was incubated for 15 minutes at 37°C. To terminate the reaction, 1 ml of 0:1 M HC1 was added, following which 1 ml of ethyl acetate was added. The mixture was
An aliquot, 500 ul. of the ethyl acetate layer was transferred to a liquid scintillation vial containing 10 ml of Riafluor, trademark New England Nuclear Corporation, Boston, Massachusetts. For determination of I50 values, enzyme activity in the presence of inhibitor at a series of different concentrations was compared to activity in the absence of inhibitor. A plot of log inhibitor concentration versus percent inhibition yielded the I50 value; the concentration of inhibitor required to reduce enzymic activity by 50%.

Rats = experiment: Intravenous effectiveness: blood pressure response to angiotensin I in anesthetized rats; type: in vivo; conditions: 20 µmole/kg intravenously
Procedure: Rats (190-290 g body weight) were fasted overnight and then anesthetized with intraperitoneal pentobarbital, 50-60 mg/kg. Tracheostomy was performed and the animals were ventilated mechanically. A cannula was inserted into a femoral vein for injection of angiotensin I, and a second cannula was inserted into a common carotid artery for direct measurement of arterial blood pressure. Heparin, 1,000 units, was injected via the femoral vein to prevent coagulation. Blood pressure was measured with a pressure transducer connected to a polygraph. The rats were injected with […] of angiotensin I in 20 pl of 0.9 g % NaCl; an amount of angiotensin I sufficient to raise mean arterial blood pressure by approximately 40 mm Hg. After the responsiveness of a given rat to angiotensin I was established, the named compound at 20 µmole/kg (drug dissolved in 0.15 ml of H20 plus 10 µl of 1 N NaHC03), was given intravenously. At timed intervals, the effects of 400 ng/kg of angiotensin I on mean arterial blood pressure were tested.

[1] = Loss of activity of aqueous solution on standing under ambient conditions; type: physicochemical; conditions: fresh aqueous solution, 1 mg per ml, pH of about 8, standing for as little as 30 minutes
Description: In vitro study of the mechanism by which SQ14225 and its analogs act to inhibit ACE has been somewhat hampered by the instability of these molecules under ambient conditions.

Row | IC50 (Human plasma ACE) | Structure (SMILES) | further results
1 | 8 nM | CC(N[C@@H](C)C(=O)N1CCC[C@H]1C(=O)O)C(=O)O (stereo partly drawn) [N-(1-carboxyethyl)-L-alanyl-L-proline, reference compound] | 
2 | 60 nM | CCOC(=O)C(C)N[C@@H](C)C(=O)N1CCC[C@H]1C(=O)O (stereo partly drawn) [N-(1-ethoxycarbonylethyl)-L-alanyl-L-proline] | 
3 | 30 nM | CC(O)CC(SC(C)C(=O)N1CCC[C@H]1C(=O)O)C(=O)O (stereo partly drawn) [N-[2-(1-carboxy-3-hydroxy-butylthio)-propanoyl]-L-proline] | 
4 | 400 nM | CC(SC(C)C(=O)N1CCC[C@H]1C(=O)O)C(=O)O (stereo partly drawn) [N-[2-(1-carboxyethylthio)-propanoyl]-L-proline] | 
5 | 130 nM | CC1CC(SC(C)C(=O)N2CCC[C@H]2C(=O)O)C(=O)O1 (stereo partly drawn) [N-[2-(tetrahydro-5-methyl-2-furanone-3-thio)-propanoyl]-L-proline] | 
6 | 1500 nM | CC(SC[C@@H](C)C(=O)N1CCC[C@H]1C(=O)O)C(=O)O (stereo partly drawn) [N-[3-(1-carboxyethylthio)-2-D-methylpropanoyl]-L-proline] | Blood Pressure Reponse to 400 ng/kg of Angiotensin I (% of Control) (Rats; 8 minutes after IV administration): 62.5 % of Control; Blood Pressure Reponse to 400 ng/kg of Angiotensin I (% of Control) (Rats; 15 minutes after IV administration): 37.5 % of Control; Blood Pressure Reponse to 400 ng/kg of Angiotensin I (% of Control) (Rats; 21 minutes after IV administration): 37.5 % of Control; Blood Pressure Reponse to 400 ng/kg of Angiotensin I (% of Control) (Rats; +2 minutes after IV administration): 67.5 % of Control
7 |  | C[C@H](CS)C(=O)N1CCC[C@H]1C(=O)O [SQ14225] | activity of aqueous solution upon standing [1]: substantially less active
